Experimental data: ChEMBL document CHEMBL6153100, “Controlins I-X, Resin Glycosides from the Seeds of Convolvulus tricolor and Their Biological Activities” (J Nat Prod, 2025)
pIC50: −log10 of the molar value. Active and inactive are the calls of the source. The calls are words filed in the database; no cut-off is given here.

Tests used:
BV-2 = assay: Antineuroinflammatory activity in LPS-induced mouse BV-2 microglial cells assessed as inhibition of nitric oxide production incubated for 24 hrs by Griess reagent assay; format: functional, cell-based; conditions: BV-2, 24 h
PC-12 = assay: Neuroprotective activity in H2O2-induced oxidative damage in rat PC12 cells assessed as increase in cell survival rate at 1 to 10 uM pre-incubated for 2 hrs followed by H2O2 addition and measured after 24 hrs by MTT assay; format: functional, cell-based; conditions: dose 1-10 µM, time 26.0 hrs
Caenorhabditis elegans = assay: Anti-alzheimer activity in transgenic Caenorhabditis elegans UM0001 expressing Amyloid-beta/Tau assessed as decrease in dyskinesia measured for 30 mins by basal slowing response assay; format: functional, organism-based; conditions: dose 1-4 µM

Compound: C/C=C(\C)C(=O)OC[C@H]1O[C@@H](O[C@H]2[C@H](O)[C@@H](CO)O[C@@H](O[C@H]3[C@H](O[C@@H](CCCC)CCCCCCCCCCC(=O)OC)O[C@H](CO[C@@H]4O[C@H](C)[C@H](O)[C@H](O)[C@H]4O)[C@@H](O)[C@@H]3O)[C@@H]2O[C@@H]2O[C@@H](C)[C@H](OC(=O)[C@H](C)[C@@H](C)OC(=O)[C@H](C)[C@@H](C)O[C@@H]3O[C@H](C)[C@@H](O)[C@H](O)[C@H]3O)[C@@H](O[C@@H]3O[C@H](CO)[C@@H](O)[C@H](O)[C@H]3O)[C@H]2O)[C@H](O)[C@@H](O)[C@@H]1O
- pIC50 (BV-2): 5.01

Compound: C/C=C(\C)C(=O)OC[C@H]1O[C@@H](O[C@H]2[C@H](O)[C@@H](COC(=O)[C@H](C)[C@@H](C)O)O[C@@H](O[C@H]3[C@H](O[C@@H](CCCC)CCCCCCCCCCC(=O)OC)O[C@H](CO[C@@H]4O[C@@H](C)[C@H](O)[C@@H](O)[C@H]4O)[C@@H](O)[C@@H]3O)[C@@H]2O[C@@H]2O[C@@H](C)[C@H](OC(=O)[C@H](C)[C@@H](C)OC(=O)[C@H](C)[C@@H](C)O[C@@H]3O[C@H](C)[C@@H](O)[C@H](O)[C@H]3O)[C@@H](O[C@@H]3O[C@H](CO)[C@@H](O)[C@H](O)[C@H]3O)[C@H]2O)[C@H](O)[C@@H](O[C@@H]2O[C@H](CO)[C@@H](O)[C@H](O)[C@H]2O)[C@@H]1O
- Activity (PC-12): Active
- Activity (Caenorhabditis elegans): Dose-dependent-effect

Compound: CCCC[C@@H](CCCCCCCCCCC(=O)C=O)O[C@@H]1O[C@H](CO[C@H]2O[C@H](C)[C@@H](O)[C@@H](O)[C@H]2O)[C@@H](O)[C@H](O)[C@H]1O[C@@H]1O[C@H](CO)[C@@H](O)[C@H](O[C@@H]2O[C@H](CO)[C@@H](O)[C@H](O)[C@H]2O)[C@H]1O[C@@H]1O[C@@H](C)[C@H](OC(=O)[C@H](C)[C@@H](C)OC(=O)[C@H](C)[C@@H](C)O[C@@H]2O[C@H](C)[C@@H](O)[C@H](O)[C@H]2O[C@@H]2O[C@H](CO)[C@@H](O)[C@H](O)[C@H]2O)[C@@H](O[C@@H]2O[C@H](CO)[C@@H](O)[C@H](O)[C@H]2O)[C@H]1O
- Activity (PC-12): Active

Compound: C/C=C(\C)C(=O)OC[C@H]1O[C@@H](O[C@H]2[C@H](O)[C@@H](CO)O[C@@H](O[C@H]3[C@H](O[C@@H](CCCC)CCCCCCCCCCC(=O)OC)O[C@H](CO[C@@H]4O[C@H](C)[C@H](O)[C@H](O)[C@H]4O)[C@@H](O)[C@@H]3O)[C@@H]2O[C@@H]2O[C@@H](C)[C@H](OC(=O)[C@H](C)[C@@H](C)OC(=O)[C@H](C)[C@@H](C)O[C@@H]3O[C@H](C)[C@@H](O)[C@H](O)[C@H]3O)[C@@H](O[C@@H]3O[C@H](CO)[C@@H](O)[C@H](O)[C@H]3O)[C@H]2O)[C@H](O)[C@@H](O[C@@H]2O[C@H](CO)[C@@H](O)[C@H](O)[C@H]2O)[C@@H]1O
- pIC50 (BV-2): 4.72
- Activity (PC-12): Active

Compound: C/C=C(\C)C(=O)OC[C@H]1O[C@@H](O[C@H]2[C@H](O)[C@@H](COC(=O)[C@H](C)[C@@H](C)O)O[C@@H](O[C@H]3[C@H](O[C@@H](CCCC)CCCCCCCCCCC(=O)OC)O[C@H](CO[C@@H]4O[C@H](C)[C@H](O)[C@H](O)[C@H]4O)[C@@H](O)[C@@H]3O)[C@@H]2O[C@@H]2O[C@@H](C)[C@H](OC(=O)[C@H](C)[C@@H](C)OC(=O)[C@H](C)[C@@H](C)O[C@@H]3O[C@H](C)[C@@H](O)[C@H](O)[C@H]3O)[C@@H](O[C@@H]3O[C@H](CO)[C@@H](O)[C@H](O)[C@H]3O)[C@H]2O)[C@H](O)[C@@H](O[C@@H]2O[C@H](CO)[C@@H](O)[C@H](O)[C@H]2O)[C@@H]1O
- pIC50 (BV-2): 5.17
- Activity (Caenorhabditis elegans): Dose-dependent-effect
